Patent publication US5300672A (priority 1992, dated 1994)
Where two headings read alike, the source gives them in different places.

Legend:
Phytophthora infestans = experiment: whole plant or invertebrate; format: in vivo; details: for pest or weed control at 100 ppm / pest or weed control at 6 ppm / pest or weed control at 200 ppm: Phytophthora infestans, in Solanum lycopersicum, 96 h
[1] = test system: Erysiphe graminis (f. sp. tritici); experiment: whole plant or invertebrate; format: in vivo
[2] = test system: Pellicularia filamentosa (f. sp. sasiki); experiment: whole plant or invertebrate; format: in vivo; details: for pest or weed control at 100 ppm / pest or weed control at 200 ppm: 120 h, read-out: % Control RSB
[3] = test system: Puccinia recondita (f. sp. tritici Races PKB and PLD); experiment: whole plant or invertebrate; format: in vivo; details: for pest or weed control at 100 ppm / pest or weed control at 200 ppm: Puccinia recondita, 240 h, read-out: % Control WLR
Pseudomonas fluorescens = experiment: Alternate Minimum Inhibitory Concentrations Test (Table 4), Ps.fl; format: cell-based; details: Table 4 alternate test, 250 ppm to 0.8 ppm in TSB, 72 hours, 30° C.; for MIC: Pseudomonas fluorescens, read-out: MIC Ps.fl
Method: The compounds of Examples 1-8, 12-26, 28-33, 36-37, 39-42, 44-109, 111-114, and 116-120 were subjected also to the following alternate biocidal activity test procedures with the results as indicated in Table 4.
The MIC test measures the viability of Pseudomonas fluorescens inoculum in TSB when exposed for 72 hours to varying concentrations of test compound.
A 125 μl aliquot of 10,000 ppm test compound in acetone was added to 4.88 ml of TSB to provide a 250 ppm solution. From this solution, 100 μL was transferred to the first row of two microtiter plate columns. Both replicates and five additional compounds were all serially diluted 1:1 to a final concentration of 0.8 ppm in TSB.
Inoculation was accomplished by diluting a 24 hr Ps fl culture, four mls per 36 mls of phosphate buffer solution. A Dynatech autoinoculator was used to transfer 1.5 μl of this cell suspension to the microtiter plates. The plates were incubated at 30° C. for 3 days before the lowest concentration at which no growth occurs was recorded in the database.

Piricularia oryzae = experiment: whole plant or invertebrate; format: in vivo; details: for pest or weed control at 100 ppm: read-out: % Control RB, application rate 100 ppm; for pest or weed control at 200 ppm: read-out: % Control RB, application rate 200 ppm
[4] = read-out: % Control TLB, application rate 100 ppm
[5] = Blumeria graminis, read-out: % Control WPM
[6] = Pyricularia oryzae, read-out: % Control RB, application rate 25 ppm
[7] = read-out: % Control TLB, application rate 200 ppm

CCCCCCCCNC(=O)/C=C\SC(=O)c1ccccc1 [Compound 1, N-octyl-cis-3-(benzoylthio)acrylamide]
pest or weed control at 100 ppm (Phytophthora infestans; [4]): 100%
pest or weed control at 100 ppm [1, 5]: 0%
pest or weed control at 100 ppm [2]: 0%
pest or weed control at 100 ppm [3]: 0%
MIC (Pseudomonas fluorescens): > 250 µg/mL
pest or weed control at 100 ppm (Piricularia oryzae; Pyricularia oryzae): 0%

CCCCCCCCNC(=O)/C=C\SC(=O)CC(=O)OCC [Compound 2, N-octyl-cis-3-(ethylmalonylthio)acrylamide]
pest or weed control at 100 ppm (Phytophthora infestans; read-out: % Control TLB): 90%
pest or weed control at 100 ppm [1, 5]: 0%
pest or weed control at 100 ppm [2]: 0%
pest or weed control at 100 ppm [3]: 0%
MIC (Pseudomonas fluorescens): > 250 µg/mL
pest or weed control at 6 ppm (Piricularia oryzae; Pyricularia oryzae, read-out: % Control RB, application rate 6 ppm): 50%

CCCCCCCCNC(=O)/C=C\SC(=O)c1cccc(OC)c1 [Compound 8, N-octyl-cis-3-[(3-methoxybenzoyl)thio]acrylamide]
pest or weed control at 100 ppm (Phytophthora infestans; read-out: % Control TLB): 80%
pest or weed control at 100 ppm [1, 5]: 0%
pest or weed control at 100 ppm [2]: 0%
pest or weed control at 100 ppm [3]: 0%
MIC (Pseudomonas fluorescens): > 250 µg/mL
pest or weed control at 100 ppm (Piricularia oryzae; Pyricularia oryzae): 80%

CCCCCCCCNC(=O)/C=C\SC/C=C/c1ccccc1 [Compound 13, N-octyl-cis-3-[(trans-3-phenylprop-2-ene)thio]acrylamide]
pest or weed control at 100 ppm (Phytophthora infestans; read-out: % Control TLB): 80%
pest or weed control at 100 ppm [1, 5]: 0%
pest or weed control at 100 ppm [2]: 0%
pest or weed control at 100 ppm [3]: 0%
MIC (Pseudomonas fluorescens): > 250 µg/mL
pest or weed control at 100 ppm (Piricularia oryzae; Pyricularia oryzae): 0%

CCCCCCCCNC(=O)/C=C\SC(=O)c1cc2ccccc2s1 [Compound 19, N-octyl-cis-3-[(2-benzo(6)thiophene)carbonylthio]acrylamide]
pest or weed control at 100 ppm (Phytophthora infestans; read-out: % Control TLB): 90%
pest or weed control at 100 ppm [1, 5]: 0%
pest or weed control at 100 ppm [2]: 0%
pest or weed control at 100 ppm [3]: 0%
MIC (Pseudomonas fluorescens): > 250 µg/mL
pest or weed control at 100 ppm (Piricularia oryzae; Pyricularia oryzae): 0%

CCCCCCCCNC(=O)/C=C\SC(=O)c1c(Cl)cccc1Cl [Compound 21, N-octyl-cis-3-[(2,6-dichlorobenzoyl)thio]acrylamide]
pest or weed control at 100 ppm (Phytophthora infestans; read-out: % Control TLB): 80%
pest or weed control at 100 ppm [1, 5]: 0%
pest or weed control at 100 ppm [2]: 0%
pest or weed control at 100 ppm [3]: 0%
MIC (Pseudomonas fluorescens): > 250 µg/mL
pest or weed control at 100 ppm (Piricularia oryzae; Pyricularia oryzae): 0%

CCCCCCCCNC(=O)/C=C\SC(=O)CCCCCCC [Compound 23, N-octyl-cis-3-(octanoylthio)acrylamide]
pest or weed control at 100 ppm (Phytophthora infestans; [4]): 0%
pest or weed control at 100 ppm [1, 5]: 0%
pest or weed control at 100 ppm [2]: 80%
pest or weed control at 100 ppm [3]: 0%
MIC (Pseudomonas fluorescens): > 250 µg/mL
pest or weed control at 100 ppm (Piricularia oryzae; Pyricularia oryzae): 0%

CCCCCCCCNC(=O)/C=C\SC(=O)C(CC)CCCC (stereo not drawn) [Compound 27, N-octyl-cis-3-[(2-ethylhexanoyl)thio]acrylamide]
pest or weed control at 100 ppm (Phytophthora infestans; read-out: % Control TLB): 90%
pest or weed control at 100 ppm [1, 5]: 0%
pest or weed control at 100 ppm [2]: 0%
pest or weed control at 100 ppm [3]: 0%
pest or weed control at 100 ppm (Piricularia oryzae; Pyricularia oryzae): 0%

CCCCCCCCNC(=O)/C=C\SC(=O)c1c(F)cc(F)cc1F [Compound 28, N-octyl-cis-3-[(2,4,6-trifluorobenzoyl)thio]acrylamide]
pest or weed control at 100 ppm (Phytophthora infestans; [4]): 0%
pest or weed control at 100 ppm [1, 5]: 0%
pest or weed control at 100 ppm [2]: 0%
pest or weed control at 100 ppm [3]: 0%
MIC (Pseudomonas fluorescens): > 250 µg/mL
pest or weed control at 100 ppm (Piricularia oryzae; Pyricularia oryzae): 90%

CCCCCCCCNC(=O)/C=C\SC(=O)CCl [Compound 31, N-octyl-cis-3-(chloroacetylthio)acrylamide]
pest or weed control at 100 ppm (Phytophthora infestans; read-out: % Control TLB): 80%
pest or weed control at 100 ppm [1, 5]: 0%
pest or weed control at 100 ppm [2]: 0%
pest or weed control at 100 ppm [3]: 0%
MIC (Pseudomonas fluorescens): > 250 µg/mL
pest or weed control at 100 ppm (Piricularia oryzae; Pyricularia oryzae): 0%

CCCCCCCCNC(=O)/C=C\SC(=O)N1CCCC1 [Compound 32, N-octyl-cis-3-[(1-pyrrolidine)carbonylthio]acrylamide]
pest or weed control at 100 ppm (Phytophthora infestans; read-out: % Control TLB): 80%
pest or weed control at 100 ppm [1, 5]: 0%
pest or weed control at 100 ppm [2]: 0%
pest or weed control at 100 ppm [3]: 0%
MIC (Pseudomonas fluorescens): > 250 µg/mL
pest or weed control at 100 ppm (Piricularia oryzae; Pyricularia oryzae): 0%

CCCCCCCCNC(=O)/C=C\SCC(=O)OCC [Compound 34, N-octyl-cis-3-(ethoxycarbonylmethanethio)acrylamide]
pest or weed control at 100 ppm (Phytophthora infestans; read-out: % Control TLB): 80%
pest or weed control at 100 ppm [1, 5]: 0%
pest or weed control at 100 ppm [2]: 90%
pest or weed control at 100 ppm [3]: 0%
pest or weed control at 100 ppm (Piricularia oryzae; Pyricularia oryzae): 0%

CCCCCCCCNC(=O)/C=C\SC(=O)c1ccccc1CCl [Compound 35, N-octyl-cis-3-[(2-(chloromethyl)benzoyl)thio]acrylamide]
pest or weed control at 100 ppm (Phytophthora infestans; [4]): 0%
pest or weed control at 100 ppm [1, 5]: 85%
pest or weed control at 100 ppm [2]: 0%
pest or weed control at 100 ppm [3]: 0%
pest or weed control at 100 ppm (Piricularia oryzae; Pyricularia oryzae): 80%

CCCCCCCCNC(=O)/C=C\SC(=O)c1cccc(Br)c1 [Compound 36, N-octyl-cis-3-[(3-bromobenzoyl)thio]acrylamide]
pest or weed control at 100 ppm (Phytophthora infestans; [4]): 0%
pest or weed control at 100 ppm [1, 5]: 0%
pest or weed control at 100 ppm [2]: 0%
pest or weed control at 100 ppm [3]: 0%
MIC (Pseudomonas fluorescens): > 250 µg/mL
pest or weed control at 25 ppm (Piricularia oryzae; Pyricularia oryzae, read-out: % Control RB): 90%

CCCCCCCCNC(=O)/C=C\SC(=O)C(Cl)Cl [Compound 37, N-octyl-cis-3-(dichloroacetylthio)acrylamide]
pest or weed control at 6 ppm (Phytophthora infestans; read-out: % Control TLB): 90%
pest or weed control at 100 ppm [1, 5]: 0%
pest or weed control at 100 ppm [2]: 0%
pest or weed control at 100 ppm [3]: 0%
MIC (Pseudomonas fluorescens): > 250 µg/mL
pest or weed control at 25 ppm (Piricularia oryzae; [6]): 80%

CCCCCCCCNC(=O)/C=C\SC(C)C(=O)OC (stereo not drawn) [Compound 38]
pest or weed control at 6 ppm (Phytophthora infestans; read-out: % Control TLB): 80%
pest or weed control at 100 ppm [1, 5]: 0%
pest or weed control at 100 ppm [2]: 0%
pest or weed control at 100 ppm [3]: 0%
pest or weed control at 25 ppm (Piricularia oryzae; [6]): 80%

CCCCCCCCNC(=O)C=CSC(CO)COc1ccc(OC)cc1 (stereo not drawn) [Compound 39, N-octyl-cis-3-[(1-hydroxy-3-(4-methoxyphenoxy)-2-propane)thio]acrylamide]
% Control TLB (Phytophthora infestans; application rate 100 ppm): 0 % Control
% Control WPM ([1]; in vivo): 0 % Control
% Control RSB ([2]; in vivo): 0 % Control
% Control WLR ([3]; in vivo): 0 % Control
MIC Ps.fl (Pseudomonas fluorescens): > 250 Ppm
% Control RB (Piricularia oryzae; in vivo): 80 % Control

CCCCCCCCNC(=O)/C=C\SC(=O)c1cc(Cl)cc(Cl)c1 [Compound 54, N-octyl-cis-3-[(3,5-dichlorobenzoyl)thio]acrylamide]
pest or weed control at 100 ppm (Phytophthora infestans; read-out: % Control TLB): 85%
pest or weed control at 100 ppm [1, 5]: 0%
pest or weed control at 100 ppm [2]: 0%
pest or weed control at 100 ppm [3]: 0%
MIC (Pseudomonas fluorescens): > 250 µg/mL

CCCCCCCCNC(=O)/C=C\SC(=O)CCCCCCCCCCC#N [Compound 58, N-octyl-cis-3-[(11-cyanoundecanoyl)thio]acrylamide]
pest or weed control at 200 ppm (Phytophthora infestans; [7]): 0%
pest or weed control at 200 ppm [1, 5]: 0%
pest or weed control at 200 ppm [2]: 50%
pest or weed control at 200 ppm [3]: 0%
MIC (Pseudomonas fluorescens): > 250 µg/mL

CCCCCCCCNC(=O)/C=C\SC(=O)COCC [Compound 60, N-octyl-cis-3-(ethoxyacetylthio)acrylamide]
pest or weed control at 200 ppm (Phytophthora infestans; [7]): 95%
pest or weed control at 200 ppm [1, 5]: 0%
pest or weed control at 200 ppm [2]: 0%
pest or weed control at 200 ppm [3]: 25%
MIC (Pseudomonas fluorescens): > 250 µg/mL
pest or weed control at 200 ppm (Piricularia oryzae; Pyricularia oryzae): 50%

CCCCCCCCNC(=O)/C=C\SC(=O)c1ccoc1 [Compound 62, N-octyl-cis-3-(3-furoylthio)acrylamide]
pest or weed control at 200 ppm (Phytophthora infestans; read-out: % Control TLB): 90%
pest or weed control at 12 ppm [1, 5]: 50%
pest or weed control at 200 ppm [2]: 0%
pest or weed control at 100 ppm [3]: 0%
MIC (Pseudomonas fluorescens): > 250 µg/mL
pest or weed control at 200 ppm (Piricularia oryzae; Pyricularia oryzae): 0%

C=CCC(=O)S/C=C\C(=O)NCCCCCCCC [Compound 63, N-octyl-cis-3-[(3-butenoyl)thio]acrylamide]
pest or weed control at 200 ppm (Phytophthora infestans; [7]): 100%
pest or weed control at 200 ppm [1, 5]: 0%
pest or weed control at 200 ppm [2]: 0%
pest or weed control at 200 ppm [3]: 0%
MIC (Pseudomonas fluorescens): > 250 µg/mL
pest or weed control at 200 ppm (Piricularia oryzae; Pyricularia oryzae): 0%

C=Cc1ccc(C(=O)S/C=C\C(=O)NCCCCCCCC)cc1 [Compound 64, N-octyl-cis-3-[(4-ethenylbenzoyl)thio]acrylamide]
pest or weed control at 200 ppm (Phytophthora infestans; read-out: % Control TLB): 80%
pest or weed control at 200 ppm [1, 5]: 0%
pest or weed control at 200 ppm [2]: 0%
pest or weed control at 200 ppm [3]: 0%
MIC (Pseudomonas fluorescens): > 250 µg/mL
pest or weed control at 200 ppm (Piricularia oryzae; Pyricularia oryzae): 0%

CCCCCCCCNC(=O)/C=C\SC(=O)c1ccsc1 [Compound 65, N-octyl-cis-3-[(3-thiophene)carbonylthio]acrylamide]
pest or weed control at 200 ppm (Phytophthora infestans; [7]): 95%
pest or weed control at 200 ppm [1, 5]: 0%
pest or weed control at 200 ppm [2]: 0%
pest or weed control at 200 ppm [3]: 0%
MIC (Pseudomonas fluorescens): > 250 µg/mL
pest or weed control at 200 ppm (Piricularia oryzae; Pyricularia oryzae): 0%
